Test results published in ChEMBL document CHEMBL1201862, “PubChem BioAssay data set” (2004).
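Where inhibition never reached the appropriate level, the endpoint shown equals the highest concentration tested. Otherwise, values were interpolated linearly from a five-concentration, 48-hour dose response in 96-well plates. At the GI50, growth is halved.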 Calls of active or inactive are those of the source. No stated cut-off is given here; in the data, active = GI50 up to about 1.1 µM and inactive = higher.

What was measured:
Assay in all cases: NCI-60 cell line screen, 48 h
HOP-62 = system: HOP-62
U-251 = system: U-251
NCI/ADR-RES = system: NCI/ADR-RES
LOX IMVI = system: LOX IMVI
T47D = system: T47D
CAKI-1 = system: CAKI-1
HL-60 = system: HL-60
MCF7 = system: MCF7
OVCAR-4 = system: OVCAR-4
KM12 = system: KM12
UACC-62 = system: UACC-62
OVCAR-5 = system: OVCAR-5
OVCAR-8 = system: OVCAR-8
SR = system: SR
PC-3 = system: PC-3
BT-549 = system: BT-549
Hs-578T = system: Hs-578T
SK-OV-3 = system: SK-OV-3
TK-10 = system: TK-10
RXF 393 = system: RXF 393

Measured: GI50

N#Cc1cccc(N2C(=O)C3C4C=CC(C3C2=O)C2C(=O)N(c3cccc(C#N)c3)C(=O)C42)c1 (stereo not given)
inactive: HOP-62 18.3 µM | U-251 10.1 µM | NCI/ADR-RES > 100 µM | LOX IMVI 61.9 µM | T47D > 31.6 µM | CAKI-1 55.5 µM | HL-60 > 80.9 µM | MCF7 > 100 µM | OVCAR-4 > 63.1 µM | KM12 > 56.2 µM | UACC-62 54 µM | OVCAR-5 > 63.1 µM | OVCAR-8 37.8 µM | SR 37.6 µM | PC-3 > 100 µM | BT-549 17.7 µM | Hs-578T 40 µM | SK-OV-3 17.1 µM | TK-10 26.5 µM | RXF 393 10.2 µM

CCOC(=O)C(Cc1ccc(N(CCCl)CCCl)cc1)NC(=O)CCCN1C(=O)CN=C(c2ccccc2)c2cc(Cl)ccc21 (stereo not given)
inactive: HOP-62 36.9 µM | U-251 27.3 µM | NCI/ADR-RES 22 µM | LOX IMVI 3.18 µM | T47D 3.55 µM | CAKI-1 15.2 µM | HL-60 2.21 µM | MCF7 8.53 µM | OVCAR-4 18.6 µM | KM12 25.5 µM | UACC-62 2.72 µM | OVCAR-5 > 100 µM | OVCAR-8 18.7 µM | SR 2.31 µM | PC-3 11.7 µM | BT-549 41.9 µM | Hs-578T 6.67 µM | SK-OV-3 > 76.2 µM | TK-10 > 66.5 µM | RXF 393 3.25 µM

COc1ccc2cc(CN3CCC(C4CCNCC4)CC3)ccc2c1
inactive: HOP-62 2.67 µM | U-251 1.91 µM | NCI/ADR-RES 2.88 µM | LOX IMVI 1.6 µM | T47D 2.33 µM | CAKI-1 2.48 µM | HL-60 1.49 µM | MCF7 2.11 µM | OVCAR-4 8.97 µM | KM12 2.11 µM | UACC-62 1.97 µM | OVCAR-5 7.76 µM | OVCAR-8 3.4 µM | SR 2.07 µM | PC-3 7.8 µM | BT-549 8.67 µM | Hs-578T 2.93 µM | SK-OV-3 10 µM | TK-10 3.79 µM | RXF 393 2.28 µM

CCc1ccc(/C=C/C(=O)C2CN(CC)CCC2(O)/C=C/c2ccc(CC)cc2)cc1 (stereo not given)
inactive: HOP-62 1.91 µM | U-251 1.66 µM | NCI/ADR-RES 3.47 µM | LOX IMVI 1.51 µM | T47D 4.15 µM | CAKI-1 6.59 µM | HL-60 2.77 µM | MCF7 2.42 µM | OVCAR-4 4.2 µM | KM12 1.87 µM | UACC-62 4.92 µM | OVCAR-5 3.16 µM | OVCAR-8 3.3 µM | SR 1.71 µM | PC-3 3.55 µM | BT-549 4.68 µM | Hs-578T 2.83 µM | SK-OV-3 12.3 µM | TK-10 2.34 µM | RXF 393 3.18 µM

COC(=O)C12CCC(C)(C)CC1C1=CCC3C4(C)CC(O)C(O)C(C)(C(=O)OC)C4CCC3(C)C1(CO)CC2 (stereo not given)
inactive: HOP-62 17.9 µM | U-251 18.5 µM | NCI/ADR-RES 12.9 µM | LOX IMVI 14 µM | T47D 10.7 µM | CAKI-1 14 µM | HL-60 7.52 µM | MCF7 14.1 µM | OVCAR-4 13.5 µM | KM12 9.38 µM | UACC-62 14.3 µM | OVCAR-5 17.9 µM | OVCAR-8 13.6 µM | SR 3.42 µM | PC-3 10.3 µM | BT-549 14.6 µM | Hs-578T 12.6 µM | SK-OV-3 16.9 µM | TK-10 19 µM | RXF 393 6.68 µM

CC(C)=CC[C@]12CCN[C@H]1N(S(=O)(=O)c1ccccc1)c1ccccc12
inactive: HOP-62 15.3 µM | U-251 16 µM | NCI/ADR-RES 14.8 µM | LOX IMVI 15.9 µM | T47D 15.2 µM | CAKI-1 20.1 µM | HL-60 17.8 µM | MCF7 18.2 µM | OVCAR-4 14.3 µM | KM12 22 µM | UACC-62 13.2 µM | OVCAR-5 > 100 µM | OVCAR-8 16.8 µM | SR 18.3 µM | PC-3 13.5 µM | BT-549 17.1 µM | Hs-578T 20.5 µM | SK-OV-3 12.7 µM | TK-10 34.9 µM | RXF 393 13.5 µM

Cn1c2ccc3cc2c(=S)c2cc(ccc21)OCCOCCOCCOCCOCCO3
inactive: HOP-62 > 10 µM | U-251 > 10 µM | NCI/ADR-RES > 10 µM | LOX IMVI > 10 µM | T47D > 10 µM | CAKI-1 > 10 µM | HL-60 > 10 µM | MCF7 > 10 µM | OVCAR-4 > 10 µM | KM12 > 10 µM | UACC-62 > 10 µM | OVCAR-5 > 10 µM | OVCAR-8 > 10 µM | SR > 10 µM | PC-3 > 10 µM | BT-549 > 10 µM | Hs-578T > 10 µM | SK-OV-3 > 10 µM | TK-10 > 10 µM | RXF 393 > 10 µM

CC1=C(C#N)C2C(=C(N)Oc3ccccc32)C(N)=N1 (stereo not given)
inactive: HOP-62 35.6 µM | U-251 34 µM | NCI/ADR-RES 19.3 µM | LOX IMVI 20.1 µM | T47D 20.1 µM | CAKI-1 19.1 µM | HL-60 29.1 µM | MCF7 6.56 µM | OVCAR-4 32.8 µM | KM12 26.4 µM | UACC-62 20.7 µM | OVCAR-5 24.8 µM | OVCAR-8 25.1 µM | SR 40.8 µM | PC-3 33.3 µM | BT-549 32 µM | Hs-578T 26.1 µM | SK-OV-3 8.38 µM | TK-10 21.1 µM | RXF 393 22.7 µM

Oc1cc(-c2ccc(F)cc2)nc2ncc(Cl)cc12
inactive: HOP-62 32.2 µM | U-251 21.7 µM | NCI/ADR-RES 18 µM | LOX IMVI 28.6 µM | T47D 48.4 µM | CAKI-1 33 µM | HL-60 3.38 µM | MCF7 12.3 µM | OVCAR-4 > 77.3 µM | KM12 6.17 µM | UACC-62 9.71 µM | OVCAR-5 55.3 µM | OVCAR-8 38.5 µM | SR 3.09 µM | PC-3 20.2 µM | BT-549 > 100 µM | Hs-578T 19.9 µM | SK-OV-3 45.5 µM | TK-10 > 83.4 µM | RXF 393 17.2 µM

CCOC(=O)/C=C/[C@H](O[Si](c1ccccc1)(c1ccccc1)c1ccccc1)C(C)(C)C
inactive: HOP-62 > 31.6 µM | U-251 > 31.6 µM | NCI/ADR-RES 28.5 µM | LOX IMVI > 31.6 µM | T47D 11.5 µM | CAKI-1 28.4 µM | HL-60 > 100 µM | MCF7 > 31.6 µM | OVCAR-4 > 31.6 µM | KM12 15.8 µM | UACC-62 > 31.6 µM | OVCAR-5 > 10 µM | OVCAR-8 > 31.6 µM | SR > 10 µM | PC-3 10.5 µM | BT-549 > 10 µM | Hs-578T 20.5 µM | SK-OV-3 > 31.6 µM | TK-10 > 31.6 µM | RXF 393 15.5 µM
